Laboratory results reported in PMC7162859 (Scientific Reports, 2020).

Experiments:
[1] = parameters: method as in PMID 23334925; details: following ip dosing; cited from earlier work
Bcrp = tested on: Bcrp; parameters: method as in PMID 15930306; details: read-out: EC50 (Bcrp inhibition); cited from earlier work
orthotopic GBM1A tumors [2] = test: Pharmacodynamics: monopolar spindle formation in orthotopic GBM1A tumors; format: in vivo, NSG mice; details: single ip dose 10 mg/kg each drug; 8 hours
Protocol: Female NSG mice were intracerebrally injected with 500,000 GBM1A cells at coordinates X = 1.5 mm, Y = 1.5 mm and Z = 2.5 mm relative to the bregma, and tumor growth was monitored by bioluminescence imaging. After 4 weeks (tumor size of about 2 × 10^9 photons/sec), animals were randomized to receive single ip dose of microemulsion vehicle, 10 mg/kg elacridar, 10 mg/kg ispinesib, or a combination of 10 mg/kg ispinesib and 10 mg/kg elacridar (n = 8–10). At 8 hours following treatment, mice were perfused and whole brains were isolated. The samples were processed for immunofluorescence by staining for tubulin with an alpha-tubulin antibody (Cell signaling, Cat#2125) and counter staining with DAPI for visualizing nuclei. Images were scanned and counted for cells with monopolar spindles.

P-gp = details: read-out: EC50 (P-gp inhibition); cited from earlier work
orthotopic GBM1A tumors [3] = format: in vivo; details: 10 mg/kg ip each drug once every 4 days for 28 days
Protocol: Female NSG mice were intracranially implanted with 500,000 luciferase expressing GBM1A cells (transduced with lentiviral particles expressing GFP-Luciferase). After 7 days, animals were randomized into four groups and ip administered with microemulsion vehicle, 10 mg/kg elacridar, 10 mg/kg ispinesib, or a combination of 10 mg/kg ispinesib and 10 mg/kg elacridar, once every 4 days for 28 days (n = 10). The dosing schedule of once every 4 days was based on our previously publication with ispinesib. Tumor growth was monitored by bioluminescence imaging and animals were followed for survival.
The progression of tumor growth was monitored by bioluminescence imaging (BLI) using an IVIS system. Mice that underwent stereotactic injection with GFP-luciferase expressing GBM1A cells were imaged twice a week. Ten minutes prior to imaging, mice were intraperitoneally injected with d-luciferin at 75 mg/kg body weight (3 mL/kg injection volume). Animals were immobilized using 1.5% − 3.0% isoflurane provided by nose cones within the imager and were kept warm using a heated stage set at 37 °C during the imaging procedure. Following imaging for about 5 minutes, animals were removed from the IVIS chamber and monitored until they fully recovered from anesthesia.

COc1cc2c(cc1OC)CN(CCc1ccc(NC(=O)c3cccc4c(=O)c5cccc(OC)c5[nH]c34)cc1)CC2 [Elacridar, N-[4-[2-(6,7-dimethoxy-3,4-dihydro-1H-isoquinolin-2-yl)ethyl]phenyl]-5-methoxy-9-oxo-10H-acridine-4-carboxamide]
half-life [1]: 3.2 h | EC50 (Bcrp): ~300 nM | monopolar spindles in tumor core (tubulin/DNA staining) (orthotopic GBM1A tumors [2]): normal distribution of DNA | EC50 (P-gp): […] | tumor doubling time (bioluminescence, single exponential fit) (orthotopic GBM1A tumors [3]; days 7–37): 6.2 days | median survival (orthotopic GBM1A tumors [3]; vehicle 61 days): 62 days
